How the values were obtained:
Hsp70 ATPase = target: T1, Hsp70 ATPase (Homo sapiens, UniProt P0DMV8); assay: Inhibition of Hsp70 ATPase activity (malachite green); type: biochemical; details: for Inhibitory rate (%) on activity of Hsp70 ATPase / inhibitory rate of Hsp70 ATPase activity / inhibition at 200 µM: 200 μM; for Inhibitory rate (%) on activity of Hsp70 ATPase / inhibition at 200 µM: repeated screening carried out twice, Hsp70/Hsp40, 1 mM ATP; for dose-response relationship with respect to inhibition of Hsp70 ATPase activity: first preliminary screening, 200, 100, 50, 25 and 12.5 μM with Hsp70/Hsp40, FIGS. 1, 2; for inhibitory rate of Hsp70 ATPase activity: preliminary screening, after incubation for 30 min; for inhibition at 200 µM: read-out: Inhibitory rate (%) on activity of Hsp70 ATPase
T1 construct: made in house; host or cells: E. coli
T1 sequence (P0DMV8 2-641 limits assumed): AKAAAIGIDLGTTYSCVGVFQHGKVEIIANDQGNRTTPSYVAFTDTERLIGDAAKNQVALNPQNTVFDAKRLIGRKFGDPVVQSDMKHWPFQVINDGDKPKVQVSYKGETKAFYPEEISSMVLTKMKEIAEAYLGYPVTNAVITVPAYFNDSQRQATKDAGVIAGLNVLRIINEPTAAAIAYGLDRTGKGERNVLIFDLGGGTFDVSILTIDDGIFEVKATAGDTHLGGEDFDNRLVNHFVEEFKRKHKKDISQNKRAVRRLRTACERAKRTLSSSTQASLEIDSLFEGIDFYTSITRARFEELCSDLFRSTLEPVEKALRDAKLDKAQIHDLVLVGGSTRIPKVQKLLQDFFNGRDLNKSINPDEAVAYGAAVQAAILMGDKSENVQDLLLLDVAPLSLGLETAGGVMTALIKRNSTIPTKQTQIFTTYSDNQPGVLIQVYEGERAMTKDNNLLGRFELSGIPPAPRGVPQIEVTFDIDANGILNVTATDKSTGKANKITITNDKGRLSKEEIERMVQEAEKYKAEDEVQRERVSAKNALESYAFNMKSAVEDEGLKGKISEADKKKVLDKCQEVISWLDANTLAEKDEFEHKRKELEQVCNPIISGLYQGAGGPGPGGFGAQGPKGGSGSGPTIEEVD
Method: (1) Protein: Humanized Hsp70, Hsp40, expressed by E. coli.
(2) Sample to be tested: 26 compound solids with different colors and states. Positive drugs AZ (CAS:1054543-47-3) and VER 155008 (CAS: 1134156-31-2) were synthesized in the laboratory.
(4) ATPase Assay buffer: • 0.017% Triton X-100; • 100 mM Tris-HCl; • 20 mM KCl; • 6 mM MgCl2, pH 7.4.
1) 13.08 μl DnaK (0.15 mg/mL, 2.14 μM), 1.96 μl DnaJ (1 mg/mL, 25 μM) were dissolved in 7.96 μl Assay Buffer (0.017% Triton X-100, 100 mM Tris-HCl, 20 mM KCl, and 6 mM MgCl2, pH 7.4), and the resultant solution was added to each well of the 96 well plate;
2) to each well of the 96 well plate, 1 μL sample to be tested (5 mM) or DMSO (solvent) was added, and vortexed with a Vortex agitator for 10 min; and then standing at 37° C. for 30 min;
3) to each well, 1 μL 25 mM ATP was added, to trigger the enzymatic reaction; (in each well, the final reaction volume was 25 μL, the final concentration of DnaK was 1.12 μM, the final concentration of DnaJ was 1.96 μM, the final concentration of DMSO was 4%, the final concentration of Triton X-100 was 0.01%, the final concentration of ATP was 1 mM, and the final concentration of sample to be tested was 200 μM), the enzymatic reaction was carried out at 37° C. for 3 h;
4) 80 μL Malachite green staining solution was then added to each well, and was vortexed gently;
5) 10 μL of 34% citrate sodium was then added immediately, and vortexed gently, to stop the ATP hydrolysis not caused by ATPase;
6) the resultant mixture was mixed thoroughly at 37° C. for 15 min, and OD620 was measured.
The inhibitory rate of Hsp70 ATPase activity is calculated in accordance with the following formula: Inhibitory rate (%)=(DMSO well OD−Experimental well OD)/(DMSO well OD−Blank well OD)×100
Criteria for preliminary screening: during preliminary screening, an example compound is regarded as effective in inhibition as long as its inhibitory rate is above 20% for Hsp70 ATPase at 200 μM.

MDA-MB-453 = assay: CDI of example compounds and Lapatinib (ATPlite cell survival); type: cell-based; parameters: key: CDI = AB/(A×B); <1 synergistic; details: compound 5 μM + Lapatinib 1 μM, 72 h; natural Lapatinib-resistant human breast cancer cells; CDI<1 synergistic
Method: (§1) Cells: (BT474 and SK-BR3 are Lapatinib-sensitive human breast cancer cell strains; BT/LapR and SK/LapR are secondary Lapatinib-resistant human breast cancer cell strains upon Lapatinib stimulation; MDA-MB-361 and MDA-MB-453 are natural Lapatinib-resistant human breast cancer cell strains. BT474, MDA-MB-361, SK-BR3 and MDA-MB-453 are from American Type Culture Collection (ATCC))
(§2) In a 100 mm culture dish full of adherent cells, digestion with 1 ml 0.25% pancreatin (GIBCO) was carried out at 37° C. for 5 min, and the reaction was stopped with 2 ml medium (containing 10% FBS, GIBCO). The cells were dispersed and collected. After cell count, the cells were diluted to a concentration of 1×10^5 cells/ml, and were seeded to a 96-well plate at 50 μl/well, 5000 cell/well, 60 wells in total, PBS instead of cells was added to the wells of the outmost circle, and the incubation was carried out at 37° C. for 24 h for adherence.
(§3) For the sample group, samples to be tested were diluted with DMSO to a final concentration of 5 μM; to control wells, the medium containing the same concentration of solvent corresponding to the compound was added, the concentrations of the compounds were identical in each well, 5 wells in parallel were set for each concentration, 25 μL/well, and 25 μL medium was added to each well (for the combination group, 25 μL Lapatinib was added to reach a final concentration of 1 μM). The incubation was carried out at 37° C. for 72 h.
(§4) To each well, 50 μL ATPlite kit substrate solution was added. The plate was under shaking for 3 min, and was then placed in dark for 10 min. The lysis supernatant was drawn at 100 μL/well, and placed in a luminescent plate. The incubated luminescent plate was placed in an iluminescence apparatus, and the iluminescent value was read.
(§5) Data Processing Cell survival rate (%)=Experimental group RLU/control group RLU×100%
(§6) Coefficient of drug interaction (CDI) is used to evaluate the interaction of two drugs, CDI is calculated in accordance with the following formula: CDI=AB/(A×B)×100%. The calculation is performed according to the number of live cells (luminescent value), if CDI<1, the two drugs have a synergistic effect; if CDI<0.7, the synergistic effect is very significant; if CDI=1, the effect of the two drugs in combination is the sum of the effects of the two drugs; if CDI>1, the two drugs have an antagonistic effect.

BT474 = assay: as above; type: cell-based; parameters: key: CDI = AB/(A×B); <1 synergistic; details: compound 5 μM + Lapatinib 1 μM, 72 h; Lapatinib-sensitive human breast cancer cells; CDI<1 synergistic, <0.7 very significant, >1 antagonistic
Method: as §1, §2, §3, §4, §5, §6

SK-BR3 = assay: as above; type: cell-based; parameters: key: CDI = AB/(A×B); <1 synergistic; details: compound 5 μM + Lapatinib 1 μM, 72 h; Lapatinib-sensitive human breast cancer cells; CDI<1 synergistic
Method: as §1, §2, §3, §4, §5, §6

MDA-MB-361 = assay: as above; type: cell-based; parameters: key: CDI = AB/(A×B); <1 synergistic; details: compound 5 μM + Lapatinib 1 μM, 72 h; natural Lapatinib-resistant human breast cancer cells; CDI<1 synergistic
Method: as §1, §2, §3, §4, §5, §6

BT/Lap^R1.0 = assay: as above; type: cell-based; details: compound 5 μM + Lapatinib 1 μM, 72 h; secondary Lapatinib-resistant human breast cancer cells; CDI<1 synergistic
Method: as §1, §2, §3, §4, §5, §6

SK/Lap^R1.0 = assay: as above; type: cell-based; details: compound 5 μM + Lapatinib 1 μM, 72 h; secondary Lapatinib-resistant human breast cancer cells; CDI<1 synergistic
Method: as §1, §2, §3, §4, §5, §6

| Structure (SMILES) | Inhibitory rate (%) on activity of Hsp70 ATPase (Hsp70 ATPase) [%] | dose-response relationship with respect to inhibition of Hsp70 ATPase activity (Hsp70 ATPase) | inhibitory rate of Hsp70 ATPase activity (Hsp70 ATPase) [%] | inhibition at 200 µM (Hsp70 ATPase) [%] | CDI of example compounds and Lapatinib, MDA-MB-453 (MDA-MB-453) | CDI of example compounds and Lapatinib, BT474 (BT474) | CDI of example compounds and Lapatinib, SK-BR3 (SK-BR3) | CDI of example compounds and Lapatinib, MDA-MB-361 (MDA-MB-361) | CDI of example compounds and Lapatinib, BT/Lap^R1.0 (BT/Lap^R1.0) | CDI of example compounds and Lapatinib, SK/Lap^R1.0 (SK/Lap^R1.0) |
| --- | --- | --- | --- | --- | --- | --- | --- | --- | --- | --- |
| COc1ccc(-c2nc(-c3cc(C(F)(F)F)cc(C(F)(F)F)c3)n(Cc3ccc(C(N)=O)cc3)c2-c2ccc(OC)cc2)cc1 [AZ, reference compound] | 53.04 | dose-response relationship | 53.13 |  |  |  |  |  |  |  |
| COc1cc(/C=C/C(=O)NC(CC(C)C)NC(=S)Nc2ccccc2)cc(OC)c1OC (stereo not drawn) [Example 24, (2E)-N-[3-methyl-1-(3-phenylthioureido)butyl]-3-(3,4,5-trimethoxyphenyl) acrylamide] |  |  |  | 50.4 | 1.12 | 1.03 | 1.04 | 0.92 | 0.98 | 1 |
| COc1cc(/C=C/C(=O)NC(CC(C)C)NC(=S)Nc2cccnc2)cc(OC)c1OC (stereo not drawn) [Example 25, (2E)-N-[3-methyl-1-(3-pyridin-3-ylthioureido)butyl]-3-(3,4,5-trimethoxyphenyl) acrylamide] |  |  |  | 38.5 | 1.2 | 0.94 | 1.04 | 0.93 | 0.97 | 0.93 |
| COc1cc(/C=C/C(=O)NC(NC(=S)Nc2ccccc2)C(C)(C)C)cc(OC)c1OC (stereo not drawn) [Example 26] |  |  |  | 4.55 | 0.89 | 1.02 | 1.03 | 0.99 | 0.96 | 1.02 |
| COc1cc(/C=C/C(=O)NC(NC(=S)Nc2ccccc2)C(C)C)cc(OC)c1OC (stereo not drawn) [Example 36, (2E)-N-[2-methyl-1-(3-phenylthioureido)propyl]-3-(3,4,5-trimethoxyphenyl) acrylamide] |  |  |  |  | 1.3 | 0.97 | 1.07 | 0.98 | 0.96 | 0.94 |

More lines, main results first:

| Inhibitory rate (%) on activity of Hsp70 ATPase (Hsp70 ATPase) [%] | dose-response relationship with respect to inhibition of Hsp70 ATPase activity (Hsp70 ATPase) | inhibitory rate of Hsp70 ATPase activity (Hsp70 ATPase) [%] | inhibition at 200 µM (Hsp70 ATPase) [%] | Structure (SMILES) | CDI of example compounds and Lapatinib, MDA-MB-453 (MDA-MB-453) | CDI of example compounds and Lapatinib, BT474 (BT474) | CDI of example compounds and Lapatinib, SK-BR3 (SK-BR3) | CDI of example compounds and Lapatinib, MDA-MB-361 (MDA-MB-361) | CDI of example compounds and Lapatinib, BT/Lap^R1.0 (BT/Lap^R1.0) | CDI of example compounds and Lapatinib, SK/Lap^R1.0 (SK/Lap^R1.0) |
| --- | --- | --- | --- | --- | --- | --- | --- | --- | --- | --- |
|  |  |  | 2.17 | COc1cc(/C=C/C(=O)NC(NC(=S)Nc2cccnc2)C(C)(C)C)cc(OC)c1OC (stereo not drawn) [Example 27, (2E)-N-[2,2-dimethyl-1-(3-pyridin-3-ylthioureido)propyl]-3-(3,4,5-trimethoxyphenyl) acrylamide] | 1.32 | 0.98 | 1 | 0.96 | 1.01 | 0.97 |
|  |  |  | 50.5 | COc1cc(/C=C/C(=O)NC(NC(=S)Nc2ccccc2)C2CC2)cc(OC)c1OC (stereo not drawn) [Example 28, (2E)-N-[cyclopropyl-(3-phenylthioureido)-methyl]-3-(3,4,5-trimethoxyphenyl) acrylamide] | 1.21 | 1.07 | 1.06 | 0.93 | 0.99 | 0.95 |
|  |  |  | 2.55 | COc1cc(/C=C/C(=O)NC(NC(=S)Nc2cccnc2)C2CC2)cc(OC)c1OC (stereo not drawn) [Example 29, (2E)-N-[cyclopropyl-(3-pyridin-3-ylthioureido)-methyl]-3-(3,4,5-trimethoxyphenyl) acrylamide] | 1.05 | 1.05 | 0.98 | 1 | 0.99 | 1.26 |
|  |  |  | -5.66 | COc1cc(/C=C/C(=O)NC(NC(=S)Nc2ccccn2)C2CC2)cc(OC)c1OC (stereo not drawn) [Example 30, (2E)-N-[cyclopropyl-(3-pyridin-2-ylthioureido)-methyl]-3-(3,4,5-trimethoxyphenyl) acrylamide] | 1.28 | 0.94 | 0.94 | 0.85 | 0.93 | 0.82 |
|  |  |  | 10.5 | COc1cc(/C=C/C(=O)NC(CC(C)C)NC(=S)Nc2ccccn2)cc(OC)c1OC (stereo not drawn) [Example 31, (2E)-N-[3-methyl-1-(3-pyridin-2-ylthioureido)butyl]-3-(3,4,5-trimethoxyphenyl) acrylamide] | 1.38 | 1.01 | 1 | 0.85 | 1.2 | 0.95 |
|  |  |  | 44.1 | COc1cc(/C=C/C(=O)NC(CC(C)(C)C)NC(=S)Nc2ccccc2)cc(OC)c1OC (stereo not drawn) [Example 32, (2E)-N-[3,3-dimethyl-1-(3-phenylthioureido)butyl]-3-(3,4,5-trimethoxyphenyl)acrylamide] | 1.42 | 0.65 | 1.13 | 0.91 | 1.25 | 0.89 |
| 43.03 | dose-response relationship | 38.18 |  | N#Cc1ccc(COC[C@H]2O[C@@H](n3c(NCc4ccc(Cl)c(Cl)c4)nc4c(N)ncnc43)[C@H](O)[C@@H]2O)cc1 [VER155008, reference compound] |  |  |  |  |  |  |

From US9718770B2, “Substituted thioureas as heat shock protein 70 inhibitors” (Institute of Pharmacology and Toxicology Academy of …, priority 2013, dated 2017)
